Measurements published in ChEMBL document CHEMBL1201862, “PubChem BioAssay data set” (2004).
Calls of active or inactive are those of the source.

How the values were obtained:
[1] = target: Luciferin 4-monooxygenase (Photinus pyralis, UniProt P08659); assay: firefly luciferase enzyme inhibitors, dose response, biochemical, luminescence (AID 1891)
[2] = Luminescence Cell-Based Dose Confirmation HTS to Identify Inhibitors of Platelet Dense Granule Release. [Related pubchem assays: 1663 (Primary HTS), 1678 (Summary of Project)]; format: functional
Streptococcus = assay: Group A Streptococcus viability loss, dose response, counter-screen for streptokinase expression inhibitor project, luminescence, BacTiterGlo (AID 1915); format: functional, organism-based;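 note: potency for reduction of bacterial viability or growth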
[3] = inhibitors of firefly luciferase expression or activity, dose response, H4 neuroglioma cells, luminescence (AID 1990); format: functional, cell-based
[4] = Luminescence Cell-Based Dose Retest to Confirm Inhibitors of Cancer Stem Cells. [Related pubchem assays (depositor defined):AID2717, AID2721]; format: functional; conditions: Homo sapiens
[5] = test system: Streptococcus sp. 'group A'; assay: growth inhibition of control SK(-) GAS strain, dose response, counter-screen for streptokinase expression inhibitor project, luminescence, kanamycin, BacTiterGlo, confirmation (AID 1900); format: functional, organism-based
[6] = Luminescence Cell-Based Dose Response HTS to Identify Inhibitors of 5'UTR Stem-Loop Driven Prion Protein mRNA Translation in H4 Neuroglioblastoma Cells. [Related pubchem assays: 1827 (Project Summary), 1813 (Primary HTS)]; format: functional
[7] = inhibitors of SNCA 5'UTR-driven reporter translation, confirmation, H4 neuroglioma cells, luminescence (AID 1988); format: functional, cell-based
Cytochrome P450 2C19 = Cytochrome P450 2C19 (Homo sapiens, UniProt P33261); assay: Cytochrome panel assay with activity outcomes. Panel member name: p450-cyp2c19 Compounds with AC50 equal or less than 10 uM are considered active; format: functional
Chain of Cytochrome P450 2C19 (P33261 whole entry): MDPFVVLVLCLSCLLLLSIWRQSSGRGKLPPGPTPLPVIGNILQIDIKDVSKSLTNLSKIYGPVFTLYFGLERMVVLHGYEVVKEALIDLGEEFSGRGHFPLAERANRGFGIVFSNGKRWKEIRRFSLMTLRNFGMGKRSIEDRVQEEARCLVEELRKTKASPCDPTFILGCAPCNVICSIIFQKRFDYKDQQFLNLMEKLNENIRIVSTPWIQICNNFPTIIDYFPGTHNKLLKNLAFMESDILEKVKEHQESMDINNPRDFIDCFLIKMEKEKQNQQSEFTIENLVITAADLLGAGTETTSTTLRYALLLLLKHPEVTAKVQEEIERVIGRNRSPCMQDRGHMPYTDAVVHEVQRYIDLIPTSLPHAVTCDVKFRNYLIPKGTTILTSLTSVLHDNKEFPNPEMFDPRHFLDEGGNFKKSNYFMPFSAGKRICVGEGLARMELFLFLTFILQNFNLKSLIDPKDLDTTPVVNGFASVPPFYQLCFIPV

Cytochrome P450 3A4 = Cytochrome P450 3A4 (Homo sapiens, UniProt P08684);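 note: CYP3A4 tested as one member of a cytochrome P450 panel screen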
Chain of Cytochrome P450 3A4 (P08684 whole entry): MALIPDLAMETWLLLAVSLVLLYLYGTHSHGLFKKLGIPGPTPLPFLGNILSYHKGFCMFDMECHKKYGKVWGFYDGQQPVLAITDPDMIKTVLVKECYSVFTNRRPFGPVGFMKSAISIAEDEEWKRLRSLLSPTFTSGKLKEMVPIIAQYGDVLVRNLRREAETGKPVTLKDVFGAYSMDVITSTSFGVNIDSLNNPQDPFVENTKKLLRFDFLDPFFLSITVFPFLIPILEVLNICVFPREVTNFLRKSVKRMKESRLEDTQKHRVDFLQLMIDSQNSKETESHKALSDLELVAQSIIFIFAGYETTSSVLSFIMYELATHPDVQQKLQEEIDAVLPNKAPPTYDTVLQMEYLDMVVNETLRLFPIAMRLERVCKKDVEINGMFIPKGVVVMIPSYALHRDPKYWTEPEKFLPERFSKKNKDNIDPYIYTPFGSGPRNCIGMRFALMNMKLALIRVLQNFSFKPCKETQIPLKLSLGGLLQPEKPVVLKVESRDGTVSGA

Cytochrome P450 2C9 = Cytochrome P450 2C9 (Homo sapiens, UniProt P11712)
Chain of Cytochrome P450 2C9 (P11712 whole entry): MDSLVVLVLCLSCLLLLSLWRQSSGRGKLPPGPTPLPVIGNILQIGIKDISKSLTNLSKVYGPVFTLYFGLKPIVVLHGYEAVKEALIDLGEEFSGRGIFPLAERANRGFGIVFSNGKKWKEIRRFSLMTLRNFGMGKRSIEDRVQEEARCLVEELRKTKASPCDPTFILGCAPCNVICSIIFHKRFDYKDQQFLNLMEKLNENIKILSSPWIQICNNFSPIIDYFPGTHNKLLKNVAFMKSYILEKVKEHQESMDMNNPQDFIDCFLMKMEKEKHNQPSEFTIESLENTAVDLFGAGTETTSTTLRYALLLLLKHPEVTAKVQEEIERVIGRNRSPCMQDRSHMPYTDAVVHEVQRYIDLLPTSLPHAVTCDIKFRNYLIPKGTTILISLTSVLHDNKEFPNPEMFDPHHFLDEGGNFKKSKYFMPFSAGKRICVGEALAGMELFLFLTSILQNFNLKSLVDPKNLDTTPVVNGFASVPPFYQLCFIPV

[8] = inhibitors of intracellular T. cruzi replication, confirmation, NIH3T3 host cells, beta-gal luminescence (AID 2044); format: functional, cell-based;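 note: intracellular parasites grown in NIH/3T3 mouse fibroblasts as host cells; luminescent beta-galactosidase reporter signal from transgenic T. cruzi replicating inside host cells; inhibitors lower the luminescence signal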
[9] = cytotoxicity toward NIH3T3 fibroblasts, dose response, counter-screen, cell-based, ATP luminescence, mouse fibroblasts (AID 2010); format: functional;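 note: cells exposed to compound for about 90 hours before reading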
INS1 = assay: beta cell apoptosis inhibitors, cytokine rescue, dose response, luminescence, retest (AID 449756); format: functional, cell-based; conditions: Rattus norvegicus;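 note: cell death triggered by IL-1 beta plus TNF-alpha plus IFN-gamma mixture; protective hits raise ATP signal compared with cytokine alone wells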
[10] = HEp-2 cell cytotoxicity, dose response, cytotoxicity control for RSV inhibitor project, HTS (AID 2410); format: functional; conditions: human respiratory syncytial virus
Streptokinase A = target: T1, Streptokinase A (Streptococcus pyogenes serotype M1, UniProt P10520); assay: S. pyogenes streptokinase expression inhibitors, potency, dose response, plasminogen activation absorbance, OD405 (AID 1914); format: functional, Streptococcus pyogenes M1 GAS;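 note: secreted streptokinase activity via plasminogen activation per viability signal from cell pellet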
T1 sequence (P10520 whole entry): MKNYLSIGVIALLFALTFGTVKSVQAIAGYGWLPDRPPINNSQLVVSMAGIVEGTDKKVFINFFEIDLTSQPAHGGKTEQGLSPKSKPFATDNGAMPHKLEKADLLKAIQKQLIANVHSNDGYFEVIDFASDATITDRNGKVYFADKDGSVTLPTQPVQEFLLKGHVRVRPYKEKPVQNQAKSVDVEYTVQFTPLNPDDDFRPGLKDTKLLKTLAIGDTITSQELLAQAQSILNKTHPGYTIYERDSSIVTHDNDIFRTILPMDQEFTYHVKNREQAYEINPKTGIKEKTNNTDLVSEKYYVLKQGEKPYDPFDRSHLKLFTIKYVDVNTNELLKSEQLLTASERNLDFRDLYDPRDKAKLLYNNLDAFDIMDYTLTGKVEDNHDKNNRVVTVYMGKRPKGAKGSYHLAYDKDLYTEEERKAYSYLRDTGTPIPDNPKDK

Chain of Luciferin 4-monooxygenase (P08659 whole entry): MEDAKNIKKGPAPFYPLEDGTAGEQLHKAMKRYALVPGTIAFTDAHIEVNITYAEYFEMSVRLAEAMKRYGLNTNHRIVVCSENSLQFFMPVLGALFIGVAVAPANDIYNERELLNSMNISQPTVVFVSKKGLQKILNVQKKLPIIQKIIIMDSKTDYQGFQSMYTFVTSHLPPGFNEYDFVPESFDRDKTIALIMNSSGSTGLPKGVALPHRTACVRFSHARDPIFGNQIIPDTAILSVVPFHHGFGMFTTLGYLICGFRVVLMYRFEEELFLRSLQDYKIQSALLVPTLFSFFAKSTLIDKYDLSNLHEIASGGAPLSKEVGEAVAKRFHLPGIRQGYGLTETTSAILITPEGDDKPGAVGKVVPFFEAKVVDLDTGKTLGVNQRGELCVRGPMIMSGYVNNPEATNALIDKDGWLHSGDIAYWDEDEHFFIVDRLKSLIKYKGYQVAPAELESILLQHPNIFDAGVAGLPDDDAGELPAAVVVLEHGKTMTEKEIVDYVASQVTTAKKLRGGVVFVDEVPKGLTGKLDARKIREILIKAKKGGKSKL

## COc1ccc(/C=N\NC(=O)c2ccc(F)cc2)cc1COc1ccccc1C(N)=O
[1]
  EC50: > 112 µM (not active)
[2]
  EC50: > 112 µM (not active)

## COc1ccc(OC)c(-n2c(SCC(N)=O)nnc2-c2c[nH]c3ccccc23)c1
[1]
  EC50: > 112 µM (not active)
[2]
  EC50: > 112 µM (not active)

## O=[N+]([O-])c1ccc(O)c(-c2nc(-c3ccccc3)c(-c3cccs3)[nH]2)c1
Streptococcus
  EC50: 2.38 µM (active)
[3]
  EC50: 18.2 µM (active)
[4]
  AC50: 0.662 µM (active)
[5]
  EC50: 1.23 µM (active)
[6]
  EC50: > 120 µM (not active)
[7]
  EC50: > 120 µM (not active)

## CCCc1cc(C(=O)N2CCCC(N3CCN(c4ccccc4F)CC3)C2)n(C)n1 (stereo unspecified)
[1]
  EC50: > 112 µM (not active)
[2]
  EC50: 21.6 µM (active)

## CCc1ccc(C(=O)Nc2cccc(-c3nn[nH]n3)c2)s1
[1]
  EC50: 3.49 µM (active)
[2]
  EC50: > 112 µM (not active)

## CN1CCc2[nH]nc(-c3n[nH]c4c3CN(C)CC4)c2C1
Cytochrome P450 2C19
  AC50: inconclusive

## O=c1cc(O)cc(/C=C\c2ccc(O)c(O)c2)o1
Cytochrome P450 3A4
  AC50: 3.16 µM (inconclusive)
Cytochrome P450 2C9
  AC50: 25.1 µM (inconclusive)

## COc1ccc(C(=O)C2CCCN(Cc3cc(C)c(O)c(C)c3)C2)c(OC)c1 (stereo unspecified)
[4]
  AC50: 0.502 µM (active)

## C/C(=N\NC(=O)COc1ccccc1-c1ccccc1)c1ccc(O)cc1O
[8]
  EC50: 1.24 µM (active)
Streptococcus
  EC50: 5.4 µM (active)
[3]
  EC50: 11.1 µM (active)
[5]
  EC50: 3.01 µM (active)
[6]
  EC50: 9.87 µM (active)
[9]
  EC50: 4.94 µM (active)
[7]
  EC50: 9.9 µM (active)
INS1
  AC50: 2.48 µM (active)

## COc1ccc(C(=O)NCCOc2cccc(OC)c2)cc1
[1]
  EC50: > 112 µM (not active)
[2]
  EC50: > 112 µM (not active)

## O=C(Nc1ccccc1N1CCCC1)C1CCN(S(=O)(=O)c2ccccc2C(F)(F)F)CC1
[10]
  CC50: > 50 µM (active)

## CCc1ccc(-c2cc(C(=O)N/N=C/c3c[nH]c4ccccc34)[nH]n2)cc1
Streptococcus
  EC50: 6.73 µM (active)
[4]
  AC50: 2.97 µM (active)
[5]
  EC50: 7.37 µM (active)
Streptokinase A
  EC50: > 150 µM (not active)

## CCC/C(=C1/c2ccccc2C(=O)N1c1ccccc1)c1ccc2c(c1)OCCO2
[4]
  AC50: 3.85 µM (active)

## C[N+](C)(C)c1nc(N)nc2c1ncn2[C@H]1O[C@@H](CO)[C@@H](O)[C@H]1O
Cytochrome P450 2C19
  AC50: inconclusive

## O=C(CN1CCN(c2cccc(C(F)(F)F)c2)CC1)Nc1cccc(C(F)(F)F)c1
[10]
  CC50: > 50 µM (active)

## Clc1ccccc1Cn1c(/C=C/c2ccco2)nc2ccccc21
[4]
  AC50: 2.86 µM (active)

## COc1ccc(NS(=O)(=O)c2cc(NC(=O)c3ccc(O)nc3)ccc2N2CCCC2)cc1
[4]
  AC50: 0.952 µM (active)

## Cc1cc(-c2c(C)[nH]n(-c3ccccc3)c2=O)n(-c2ccccc2)n1
Cytochrome P450 2C19; read-out: AC50
  AC50: 20 µM (inconclusive)

## CCOC(=O)C(=O)NNc1ccc(Cl)cc1
[4]
  AC50: 0.79 µM (active)

## FC(F)(F)c1ccccc1-c1nc(NC2CCNCC2)c2ccccc2n1
Cytochrome P450 2C19
  AC50: inconclusive

## CCOC(=O)Cn1c(=O)oc2cc(S(=O)(=O)NCCc3ccc(OCC)c(OCC)c3)ccc21
Cytochrome P450 2C9
  AC50: 0.00562 µM (inconclusive)

## COc1ccc(OCCCC(=O)OC(C)C(=O)Nc2ccc(NC(C)=O)cc2)cc1 (stereo unspecified)
[1]
  EC50: > 112 µM (not active)
[2]
  EC50: > 112 µM (not active)

## COc1ccc(CCN2CC34C=CC(O3)C(C(=O)NCc3ccccc3)C4C2=O)cc1OC (stereo unspecified)
Cytochrome P450 2C19; read-out: AC50
  AC50: 14.1 µM (inconclusive)

## COc1cccc(Nc2ncc3ncc(=O)n(C)c3n2)c1
Cytochrome P450 2C19
  AC50: inconclusive
Cytochrome P450 3A4
  AC50: 12.6 µM (inconclusive)

## COc1cc(C)ccc1OCCCOc1ccccc1Cl
Cytochrome P450 3A4
  AC50: 17.8 µM (inconclusive)
Cytochrome P450 2C9
  AC50: 12.6 µM (inconclusive)

## Cc1nc2ccccc2c(=O)n1NC(=O)C1CCC(C(C)(C)C)CC1 (stereo unspecified)
[3]
  EC50: > 120 µM (not active)
[6]
  EC50: > 120 µM (not active)
[7]
  EC50: > 120 µM (not active)

## CN1CCN(C(=O)CCN2C(=O)/C(=C/c3cccc(Br)c3)SC2=S)CC1
[10]
  CC50: 18.8 µM (active)

## COCCn1c(=O)c(C)nc2cnc(Nc3cccc(OC)c3)nc21
Cytochrome P450 2C9
  AC50: 39.8 µM (inconclusive)

## CC(/C=N/NC(=O)c1nnn(-c2nonc2N)c1C(C)C)=C\c1ccccc1
[10]
  CC50: 39.5 µM (active)

## COC(=O)c1[nH]c2cc(OC)ccc2c1NC(=O)CN1CCOCC1
[1]
  EC50: > 112 µM (not active)
[2]
  EC50: > 112 µM (not active)

## CCC(C)Nc1nc(N)c([N+](=O)[O-])c(Nc2ccccc2OC)n1 (stereo unspecified)
[3]
  EC50: 13.5 µM (active)
[6]
  EC50: > 120 µM (not active)
[7]
  EC50: > 120 µM (not active)

## Cc1cc(NC(=O)COC(=O)c2ccc(NS(=O)(=O)c3ccc(C)c(C)c3)cc2)no1
Cytochrome P450 2C19; read-out: AC50
  AC50: 14.1 µM (inconclusive)

## CCC(C)(C)c1ccc(Oc2cccc(C(=O)O)c2)cc1
Cytochrome P450 2C9
  AC50: 5.01 µM (inconclusive)

## COc1ccc(-n2c(=O)c(C)nc3cnc(Nc4cccc(OC)c4)nc32)cc1
Cytochrome P450 2C19; read-out: AC50
  AC50: 39.8 µM (inconclusive)
Cytochrome P450 3A4
  AC50: 10 µM (inconclusive)
Cytochrome P450 2C9
  AC50: 39.8 µM (inconclusive)

## Cc1cc(=O)n2nc(N3CCCC(C(=O)NCc4ccccc4)C3)sc2n1 (stereo unspecified)
[1]
  EC50: > 112 µM (not active)
[2]
  EC50: > 112 µM (not active)

## O=C(COc1cccc(OC(F)F)c1)Nc1ccc(SC(F)F)cc1
[1]
  EC50: > 112 µM (not active)
[2]
  EC50: > 112 µM (not active)

## CCOc1ccc(S(=O)(=O)N2CCC(C(=O)NCc3cccnc3)CC2)cc1Cl
[3]
  EC50: 17.7 µM (active)
[6]
  EC50: > 120 µM (not active)
[7]
  EC50: > 120 µM (not active)

## COc1ccc2cc1Oc1ccc(cc1)CC1c3c(cc(OC)c4c3Oc3cc5c(cc3O4)CCNC5C2)CCN1C (stereo unspecified)
[8]
  EC50: 0.193 µM (active)
[3]
  EC50: > 120 µM (not active)
[6]
  EC50: 8.28 µM (active)
[9]
  EC50: 6.68 µM (active)
[7]
  EC50: 8.03 µM (active)

## Brc1cccc(OCCN2CCc3ccccc3C2)c1
[4]
  AC50: 24.9 µM (active)

## CCOC(=O)c1ccc(NC2c3ccccc3C(=O)N2c2cccnc2)cc1 (stereo unspecified)
[3]
  EC50: 20 µM (active)
[6]
  EC50: > 120 µM (not active)
[7]
  EC50: 9.83 µM (active)

## Cc1noc(C)c1CSc1nc2ccccc2nc1NS(=O)(=O)c1ccc(Cl)cc1
Streptococcus
  EC50: 13.7 µM (active)
[4]
  AC50: 3.64 µM (active)
[5]
  EC50: 6.49 µM (active)
Streptokinase A
  EC50: 5.51 µM (active)

## COc1ccc(C(=O)OCCOc2cccc(Cl)c2)cc1S(=O)(=O)N1CCOCC1
[1]
  EC50: > 112 µM (not active)
[2]
  EC50: > 112 µM (not active)

## CCOC(=O)C1CCN(C(=O)c2oc3ccc(S(=O)(=O)N4CCCCCC4)cc3c2C)CC1
[10]
  CC50: 17.7 µM (active)

## COc1cc2c(cc1OC)C(C(=O)Nc1ccc3c(c1)OCCO3)C(c1cccnc1)N(C)C2=O (stereo unspecified)
Cytochrome P450 2C9
  AC50: 11.2 µM (inconclusive)

## O=P(O)(O)CCP(=O)(c1ccccc1)c1ccccc1
Cytochrome P450 2C19
  AC50: inconclusive

## O=[N+]([O-])c1ccc(S(=O)(=O)Nc2cccc(-c3ccc(N4CCCC4)nn3)c2)cc1
[10]
  CC50: 24.5 µM (active)

## COC(=O)C(NS(=O)(=O)c1ccc(NC(C)=O)cc1)C(C)C (stereo unspecified)
Cytochrome P450 2C9
  AC50: 1.58 µM (inconclusive)

## CCCc1cc(=O)oc2c(CN3CCOCC3)c(O)ccc12
Cytochrome P450 2C19; read-out: AC50
  AC50: 25.1 µM (inconclusive)

## Cn1cc(S(=O)(=O)N2CCCC2)cc1C(=O)NCCc1ccccc1
[1]
  EC50: > 112 µM (not active)
[2]
  EC50: > 112 µM (not active)

## O=C(N/N=C/c1ccc[nH]1)c1sc2ccccc2c1Cl
[8]
  EC50: 2.3 µM (active)
[4]
  AC50: 1.94 µM (active)
[9]
  EC50: > 30 µM (not active)

## CC1=C(C(=O)OC2CCCCC2)C(c2ccc(C)o2)C2=C(O)CC(C)(C)CC2=N1 (stereo unspecified)
[4]
  AC50: 1.38 µM (active)

## Cc1ccc(S(=O)(=O)NCc2ccc(C(=O)NC3CC3)cc2)cc1
[1]
  EC50: > 112 µM (not active)
[2]
  EC50: 28.1 µM (active)
